For this assay, the target named is Dual specificity protein phosphatase 6 (Rattus norvegicus) (UniProt Q64346). Nature of the assay: redox-state modulators of MKP-3 activity, biochemical, rat enzyme, secondary assay (AID 1054). The following applies: recombinant MKP-3 phosphatase activity.

Experimental findings from PubChem BioAssay AID1054 (Sanford-Burnham Center for Chemical Genomics, 2008) are described below.

Usually IC50 stands for the concentration that inhibits the measured activity by half.

Each structure is given as a SMILES string. Where “and” joins values, the source holds several entries; their conditions need not be identical. Equal values may be shown once. Calls of active or inactive are those of the source. No rule for the calls is given here.

Sequence of Dual specificity protein phosphatase 6 (Rattus norvegicus) (Q64346 whole entry, looked up): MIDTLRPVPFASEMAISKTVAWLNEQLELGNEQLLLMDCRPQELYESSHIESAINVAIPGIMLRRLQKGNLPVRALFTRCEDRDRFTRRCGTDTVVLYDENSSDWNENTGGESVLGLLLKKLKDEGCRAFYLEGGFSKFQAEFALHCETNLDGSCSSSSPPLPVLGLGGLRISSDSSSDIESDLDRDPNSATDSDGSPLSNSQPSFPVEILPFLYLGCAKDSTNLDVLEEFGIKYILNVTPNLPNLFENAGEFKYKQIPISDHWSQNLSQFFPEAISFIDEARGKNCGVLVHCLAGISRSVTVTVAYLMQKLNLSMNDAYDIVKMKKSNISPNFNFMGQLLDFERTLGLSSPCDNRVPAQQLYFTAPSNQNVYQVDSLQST

As to `Cc1cc(NC(=O)CCc2ccc(C)o2)no1`, the IC50 is > 100 µM (inactive). The figure for `CCOC(=O)C1=C(c2ccccc2)N=c2sc(=Cc3cc(OC)c(OC)c(OC)c3)c(=O)n2C1c1cccs1` (stereo not drawn) is > 50 µM (inactive). The same measure for `O=C(O)c1ccc2c(c1)C1C=CCC1C(C(=O)O)N2` (stereo not drawn): 15.5 µM; for `O=C(O)c1ccccc1-c1ccc(/C=c2\sc3nc4cc(Br)cnc4n3c2=O)o1`: 3.11 µM; for `O=c1nc(NCCc2ccccc2)[nH]c(=O)n1-c1ccccc1`: > 100 µM (inactive). With `COc1cc(C(=S)NCc2ccc(F)c(C)c2)ccc1O`, the IC50 is 7.53 µM. The figure for `NC(=O)c1cccc2c1NC(C(=O)O)C1CC=CC21` (stereo not drawn) is 55.5 µM; for `Cc1ccc(CC(=O)Nc2cc(C)on2)cc1` it is > 100 µM (inactive). Take `CCn1c(=O)n(CC)c(=O)n([C@@H](Cc2ccccc2)C(=O)O)c1=O`: the IC50 is > 100 µM (inactive). The same measure for `O=C(O)C1Nc2ccccc2C2C=CCC12` (stereo not drawn): 25.2 µM; for `COc1cccc2c1NC(C(=O)O)C1CC=CC21` (stereo not drawn): 23.1 µM and 13.1 µM; for `Cc1ccc2c(c1C)NC(C(=O)O)C1CC=CC21` (stereo not drawn): 5.96 µM. The same measure for `CCCCCc1nnc(NC(=O)Cc2cccs2)s1`: 17.2 µM; for `Cn1c(=O)n(-c2ccc(Cl)cc2)c(=O)n([C@@H](Cc2ccccc2)C(N)=O)c1=O`: > 100 µM (inactive); for `Cn1c(=O)n(CC(N)=O)c(=O)n(-c2ccccc2)c1=O`: > 100 µM (inactive). Turning to `Cc1ccccc1Cn1c(=O)n(-c2ccccc2)c(=O)n([C@@H](C)C(N)=O)c1=O`, the IC50 is > 100 µM (inactive). For the compound `COc1cc(C(=S)N2CCCCC2)ccc1O`, the IC50 was 13.5 µM and 10.7 µM. The same measure for `Cc1cc(NC(=O)c2cccs2)no1`: > 100 µM (inactive). As for `CCCn1c(=O)nc(NCCc2ccccc2)[nH]c1=O`, the IC50 was > 100 µM (inactive). The figure for `c1ccc(CSc2nnc(-c3ccco3)c(-c3ccco3)n2)cc1` is 24.2 µM. The figure for `Cc1cc(C)c2c(c1)C1C=CCC1C(C(=O)O)N2` (stereo not drawn) is > 100 µM (inactive); for `O=C(O)[C@@H](O)c1ccccc1` it is > 100 µM (inactive). The same measure for `Cc1cc([N+](=O)[O-])cc2c1NC(C(=O)O)C1CC=CC21` (stereo not drawn): > 100 µM (inactive). In the case of `C[C@@H](C(N)=O)n1c(=O)n(Cc2ccccc2)c(=O)n(-c2ccccc2)c1=O`, the IC50 is > 100 µM (inactive). `COc1ccc(N2Cc3cccc(C(=O)O)c3C2=O)cc1`: the IC50 is > 100 µM (inactive). With `O=C(Oc1ccc2ccccc2c1)c1ccc2c(c1)C1C=CCC1C(C(=O)O)N2` (stereo not drawn), the IC50 was 24.7 µM. For the compound `O=c1/c(=C/c2ccc(-c3ccccc3[N+](=O)[O-])o2)sc2nc3cc(Br)cnc3n12`, the IC50 was 29.8 µM. The figure for `NC(=O)[C@H](Cc1ccccc1)n1c(=O)n(Cc2ccc(Br)cc2)c(=O)n(-c2ccccc2)c1=O` is > 100 µM (inactive); for `Cc1ccc2c(c1)NC(C(=O)O)NS2(=O)=O` (stereo not drawn) it is 56.9 µM; for `COCCCNc1nc(=O)n(-c2ccc(F)cc2)c(=O)[nH]1` it is > 100 µM (inactive). As for `Cc1ccccc1Cn1c(=O)n(-c2ccccc2)c(=O)n([C@H](C(=O)O)C(C)C)c1=O`, the IC50 is > 100 µM (inactive).

For `O=C(Cc1cccs1)Nc1ccon1`, the IC50 is > 100 µM (inactive).

As to `CCOC(=O)C1=C(C)N=c2sc(=Cc3ccc(OCC(=O)O)cc3)c(=O)n2C1c1ccc(Cl)cc1` (stereo not drawn), the IC50 is 16.8 µM. The same measure for `CCC(CC)c1nnc(NC(=O)Cc2cccs2)s1`: > 100 µM (inactive). The figure for `O=c1/c(=C/c2ccc(-c3cc(Cl)cc(Cl)c3)o2)sc2nc3cc(Br)cnc3n12` is 14.8 µM. As to `CCC(CC)NC(=S)c1ccc(O)c(OC)c1`, the IC50 was 4.16 µM. The same measure for `NC(=O)[C@H](Cc1ccccc1)n1c(=O)[nH]c(=O)n(-c2ccc(Cl)cc2)c1=O`: > 100 µM (inactive); for `O=c1/c(=C/c2cccc(Br)c2)sc2nc3cc(Br)cnc3n12`: > 100 µM (inactive). The same measure for `CCOC(=O)C1Nc2c(O)ccc(C)c2C2C=CCC12` (stereo not drawn): > 100 µM (inactive); for `CCOC(=O)C1Nc2c(OC)cccc2C2OCCCC12` (stereo not drawn): > 100 µM (inactive). The same measure for `O=C(O)C1Nc2c(cccc2S(=O)(=O)c2ccccc2)C2C=CCC12` (stereo not drawn): 58.7 µM. Regarding `CCN(CC)C(=S)c1ccc(O)c(OC)c1`, the IC50 is 86.6 µM. The same measure for `O=C(O)C1Nc2c(O)cc(Cl)c([N+](=O)[O-])c2C2C=CCC12` (stereo not drawn): 35.4 µM; for `O=C(O)C1Nc2c(cccc2N2CCOCC2)C2C=CCC12` (stereo not drawn): 60.1 µM. The same measure for `COc1cc(C(=S)N2CCC(C)CC2)ccc1O`: 32.8 µM; for `O=c1/c(=C/c2ccco2)sc2nc3cc(Br)cnc3n12`: 4.56 µM; for `COc1cc(C(=S)NC(C)(C)C)ccc1O`: > 100 µM (inactive). The same measure for `CC(=O)Nc1ccc2c(c1)C1C=CCC1C(C(=O)O)N2` (stereo not drawn): > 100 µM (inactive); for `O=C(O)C1Nc2cc(Cl)cc(Cl)c2C2C=CCC12` (stereo not drawn): > 100 µM (inactive). Regarding `O=C(O)c1ccc([N+](=O)[O-])c2c1NC(C(=O)O)C1CC=CC21` (stereo not drawn), the IC50 was > 100 µM (inactive). The figure for `O=C(O)C1Nc2ccc(Br)cc2C2C=CCC12` (stereo not drawn) is 12.3 µM; for `O=C1c2ccccc2CC1Sc1nnc(-c2ccco2)c(-c2ccco2)n1` (stereo not drawn) it is 42 µM; for `CCOC(=O)c1ccccc1OC(=O)c1ccc2c(c1)C1C=CCC1C(C(=O)O)N2` (stereo not drawn) it is 6.01 µM. The same measure for `O=C(O)c1ccc(N2C(=O)c3ccccc3C2=O)cc1`: > 100 µM (inactive); for `CCCn1c(=O)nc(NCc2ccccc2OC)[nH]c1=O`: > 100 µM (inactive). The same measure for `COc1cc(C(=S)NCc2ccccc2)ccc1O`: 4.46 µM. Turning to `CCCCOC(=O)c1ccc2c(c1)C1C=CCC1C(C(=O)O)N2` (stereo not drawn), the IC50 was 4.02 µM. The same measure for `Cc1ccc(O)c2c1C1C=CCC1C(C(=O)O)N2` (stereo not drawn): 86.4 µM; for `O=C(O)C1Nc2c(F)cccc2C2C=CCC12` (stereo not drawn): 17.2 µM; for `CSc1nnc(-c2ccco2)c(-c2ccco2)n1`: 99.7 µM. `Cn1c(=O)n(-c2ccccc2)c(=O)n([C@@H](Cc2ccccc2)C(N)=O)c1=O`: the IC50 is > 100 µM (inactive). Regarding `COc1cc(C(=S)NCc2ccc(F)c(C(F)(F)F)c2)ccc1O`, the IC50 is 1.5 µM.

With `CCOc1cc2c(c([N+](=O)[O-])c1)NC(C(=O)O)C1CC=CC21` (stereo not drawn), the IC50 was > 100 µM (inactive). The figure for `CC(C)[C@@H](C(N)=O)n1c(=O)[nH]c(=O)n(-c2ccc(Cl)cc2)c1=O` is > 100 µM (inactive); for `O=C(Oc1ccc2c(c1)C1C=CCC1C(C(=O)O)N2)c1ccc(Cl)cc1Cl` (stereo not drawn) it is 15.6 µM. The same measure for `Cc1ccc2c(c1)C1C=CCC1C(C(=O)O)N2` (stereo not drawn): 7.92 µM; for `O=C(O)C1Nc2ccc([N+](=O)[O-])cc2C2C=CCC12` (stereo not drawn): 47.5 µM. The figure for `Clc1ccccc1CSc1nnc(-c2ccco2)c(-c2ccco2)n1` is 24.2 µM. In the case of `CCCCCCCCCCCCCCCCCCC#CCCCCCCCC(=O)O`, the IC50 was > 100 µM (inactive). In the case of `COc1ccc2c(c1)C1C=CCC1C(C(=O)O)N2` (stereo not drawn), the IC50 is 32 µM. The same measure for `Cc1cc2ccccn2c1C(=O)C(=O)O`: > 100 µM (inactive); for `COC(=O)c1ccccc1OC(=O)c1ccc2c(c1)C1C=CCC1C(C(=O)O)N2` (stereo not drawn): 17.2 µM; for `COc1cc(C(=S)NC2CCCC2)ccc1O`: 3.77 µM. The same measure for `CCN1CCN(C(=S)c2ccc(O)c(OC)c2)CC1`: > 100 µM (inactive); for `O=C(O)C1Nc2c(O)cccc2C2C=CCC12` (stereo not drawn): 10.5 µM and 14.6 µM; for `O=C1CC(=O)N(Cc2ccco2)C(=O)N1`: > 100 µM (inactive). The same measure for `COc1cc(C(=S)NCc2ccc(C)cc2C)ccc1O`: 2.12 µM; for `O=C(O)[C@H](O)c1ccccc1`: > 100 µM (inactive).

On to `CCn1c(=O)n(Cc2ccccc2C)c(=O)n([C@@H](Cc2ccccc2)C(=O)O)c1=O`, for which the IC50 was > 100 µM (inactive). On to `CCCCCC#CCC#CCC#CCC#CCCCC(=O)O`, for which the IC50 was 30.4 µM. For `CCOC(=O)C1Nc2c(O)cccc2C2C=CCC12` (stereo not drawn), the IC50 was > 100 µM (inactive).

In the case of `O=S(=O)(O)c1ccc2cc(N=Nc3cc(S(=O)(=O)O)c4cccnc4c3O)ccc2c1`, the IC50 was 4.19 µM.

Turning to `CCOC(=O)C1=C(C)N=c2s/c(=C/c3cc(Cl)c(OCC(=O)O)c(OC)c3)c(=O)n2C1c1ccccc1Cl` (stereo not drawn), the IC50 was 9.75 µM.

`CC(C)COC(=O)c1ccc2c(c1)C1C=CCC1C(C(=O)O)N2` (stereo not drawn): the IC50 is 55.8 µM. The figure for `Cc1ccc(C)n1C(Cc1ccccc1)C(=O)O` (stereo not drawn) is > 100 µM (inactive); for `COCCCNc1nc(=O)n(-c2ccc(C)cc2)c(=O)[nH]1` it is > 100 µM (inactive); for `Cc1ccc(C)c2c1NC(C(=O)O)C1CC=CC21` (stereo not drawn) it is > 100 µM (inactive).

On to `CCOC(=O)C1=C(C)N=c2sc(=Cc3ccc(OCC(=O)O)cc3)c(=O)n2C1c1ccc(SC)cc1` (stereo not drawn), for which the IC50 is 9.08 µM. The same measure for `O=C(O)C1Nc2c(Cl)cc(Cl)cc2C2C=CCC12` (stereo not drawn): 53 µM. The same measure for `Cc1cc(NC(=O)Cc2cccs2)no1`: 13.1 µM; for `Cn1c(SCC(=O)O)nc2sc3c(c2c1=O)CCC3`: > 100 µM (inactive). The same measure for `O=c1/c(=C/c2ccccc2Cl)sc2nc3cc(Br)cnc3n12`: 2.5 µM; for `O=C(O)c1ccc(-c2ccc(/C=c3\sc4nc5ccccc5n4c3=O)o2)cc1`: 6.59 µM; for `Cc1ccc2c(c1Cl)NC(C(=O)O)C1CC(Sc3ccccc3[N+](=O)[O-])C(Cl)C21` (stereo not drawn): 42.6 µM. Take `Cc1cc(I)cc2c1NC(C(=O)O)C1CC=CC21` (stereo not drawn): the IC50 is > 100 µM (inactive). For `Cc1ccc(-n2c(=O)[nH]c(=O)n([C@H](C(N)=O)C(C)C)c2=O)cc1`, the IC50 was > 100 µM (inactive). The same measure for `CCCCCCCCC#CC#CCCCC(=O)O`: > 100 µM (inactive); for `O=C(O)C(O)c1ccccc1` (stereo not drawn): > 100 µM (inactive).
